Measurements reported in patent publication US20250326725A1, “PI4-Kinase Inhibitors and Methods of Using the Same” (The Board of Trustees of the Leland Stanford Junior …, priority 2019, published 2025).
“And” between values parts separate entries of the source, which are not always exact repeats. Equal entries are not always repeated. Where two headings read alike, the source gives them in different places.

Legend:
[1] = system: HCV; assay: Anti-HCV assay (EC50); assay type: cell-based; conditions: Hepatitis C virus, read-out: HCV EC50
Procedure: Anti-HCV assay: Anti-HCV assays are performed as described by Cho et al. “Identification of a class of HCV inhibitors directed against the nonstructural protein NS4B.” Sci. Transl. Med. 2011; 2(15):15ra6.

[2] = system: HRV; assay: Rhinovirus antiviral assay (EC50); assay type: cell-based; conditions: Human rhinovirus sp.
[3] = system: EV71; assay: EV71 antiviral assay (EC50); assay type: cell-based, Enterovirus 71
[4] = system: EV68; assay: EV68 antiviral assay (EC50); assay type: cell-based
[5] = Microsomal stability, human liver microsomes; assay type: in vitro ADME
[6] = Microsomal stability, mouse liver microsomes; assay type: in vitro ADME
[7] = Caco-2 permeability assay; assay type: in vitro ADME; conditions: human, read-out: Caco2 Papp × 1e−6 cm/s
Procedure: Compounds of interest were tested in a variety of cell-based assays for antiviral activity.

[8] = Cell toxicity (CC50) in HRV assay; conditions: human, HRV CC50
[9] = Cell toxicity (CC50) in EV71 assay; conditions: EV71 CC50
[10] = Cell toxicity (CC50) in EV68 assay; conditions: EV68 CC50
[11] = system: HeLa S3 cells; assay: Cell toxicity (CC50) in HRV assay; conditions: human
[12] = system: cells (EV71 assay); assay: Cell toxicity (CC50) in EV71 assay
[13] = system: cells (EV68 assay); assay: Cell toxicity (CC50) in EV68 assay
[14] = biological target: T1, PI4KIIIalpha (Homo sapiens, UniProt P42356); assay: PI-kinase assay, PI4KIIIalpha (Table 4); assay type: biochemical
T1 construct: made in house; host or cells: COS-7 cells, transient transfection, anti-HA immunoprecipitate on protein G Sepharose beads
Procedure: (§1) PI-kinase assay: Compounds are tested in C.1.1. PT kinase assays as described by Shokat et al., “A membrane capture assay for lipid kinase activity.” Nat. Protoc. 2007; 2(10):2459-66.
(§2) General methods of materials: In the assays described here, p110α-p85 complex and p110γ were acquired from Millipore. Assays were performed with La-phosphatidylinositol (Avanti) as described in Knight et al. Nat Protoc. 2007; 2 (10):2459-66. Inhibitor series were prepared 10% DMSO as 5× stocks for the assay. Assays of HsVps34 were performed as described in Knight et al, except that the final assay buffer composition used was changed to 20 mM HEPES 7.5, 100 mM NaCl, 3 mM MgCl, 1 mg/mL PI and 44 nM hvps34 was used in the assay. […] COS-7 cells were cultured in 10 cm dishes and transfected at 70% confluence with 10 μg of plasmid DNA (HA-tagged bovine PI4KIIIβ. HA-tagged human PI4KIIIα) using Lipofectamine 2000 and 5 ml Opti-MEM following the manufacturer's instructions. After 5 hours the transfection medium was replaced with 10 ml complete DMEM. 36 hrs post transfection, cells were washed once with 5 ml PBS (pH 7.4) and lysed in 1 ml of lysis buffer (1) on ice. Lysates were collected by scraping and after 15 min they were centrifuged at 13.000 rpm for 10 min. To the lysates was added 200 gi of protein G Sepharose 4 fast flow beads that were prewashed with PBS and lysis buffer and 2 sg of anti-HA antibody. The tubes were then incubated overnight at 4 degrees C. in a tube rotator. The Sepharose beads in the lysate were washed twice with 150 mM NaCl in RIPA buffer, twice with RIPA buffer and once with kinase buffer (50 mM Tris/HCl, pH 7.5, 20 mM MgCl2, 1 mM EFTA, 1 mM PtdIns, 0.4% Triton X-100, 0.5 mg/mL BSA) and finally the beads were resuspended in 200 μL kinase buffer. Kinase reactions were run in a mixture of 45 μL of PI buffer (1 mM P1 in kinase buffer), 10 μL of immunoprecipitated beads, 2 µL of inhibitors (dissolved and diluted in DMSO) or DMSO and 5 μL of [γ-^32P]-ATP (1 mM and 2 μCi/tube). The immunoprecipitates in PI buffer were pre-incubated with the drugs for 20 min prior the initiation of kinase reaction by adding ATP and the reactions were carried out for 30 min in 15 ml polyproplyene tubes. Reactions were terminated by addition of 3 ml of CHCl3:CH3OH:HCl (200:100:0.75) followed by 0.6 ml of 0.61N HCl to induce phase separation. The mixtures were vortexed, centrifuged at 2000 rpm for 2 min and the upper phase was discarded. To the lower phase was added 1.5 ml of CHCl3:CH3OH:0.6N HCl (3:48:47) and the mixture vortexed and centrifuged at 2000 rpm for 2 ruin. The lower phase was then transferred to counting vials and evaporated. Samples were counted in a scintillation beta counter after adding 5 ml of Instafluor (Perkin-Elmer).
(§3) Selected compounds of Tables 1-3 were prepared and tested for inhibition activity in a variety of kinase assays.

[15] = biological target: T2, PI4KIIIbeta (Bos taurus, UniProt O02810); assay: PI-kinase assay, PI4KIIIbeta (Table 4); assay type: biochemical, bovine
T2 construct: made in house; host or cells: COS-7 cells, transient transfection, anti-HA immunoprecipitate on protein G Sepharose beads
Procedure: as §1, §2, §3

[16] = read-out: HLM/MLM (t ½ min): HLM
[17] = read-out: HLM/MLM (t ½ min): MLM
[18] = with ritonavir (concentration not stated), + Ritonavir, read-out: HLM/MLM (t ½ min) + Ritonavir: MLM

T1 sequence (P42356 whole entry): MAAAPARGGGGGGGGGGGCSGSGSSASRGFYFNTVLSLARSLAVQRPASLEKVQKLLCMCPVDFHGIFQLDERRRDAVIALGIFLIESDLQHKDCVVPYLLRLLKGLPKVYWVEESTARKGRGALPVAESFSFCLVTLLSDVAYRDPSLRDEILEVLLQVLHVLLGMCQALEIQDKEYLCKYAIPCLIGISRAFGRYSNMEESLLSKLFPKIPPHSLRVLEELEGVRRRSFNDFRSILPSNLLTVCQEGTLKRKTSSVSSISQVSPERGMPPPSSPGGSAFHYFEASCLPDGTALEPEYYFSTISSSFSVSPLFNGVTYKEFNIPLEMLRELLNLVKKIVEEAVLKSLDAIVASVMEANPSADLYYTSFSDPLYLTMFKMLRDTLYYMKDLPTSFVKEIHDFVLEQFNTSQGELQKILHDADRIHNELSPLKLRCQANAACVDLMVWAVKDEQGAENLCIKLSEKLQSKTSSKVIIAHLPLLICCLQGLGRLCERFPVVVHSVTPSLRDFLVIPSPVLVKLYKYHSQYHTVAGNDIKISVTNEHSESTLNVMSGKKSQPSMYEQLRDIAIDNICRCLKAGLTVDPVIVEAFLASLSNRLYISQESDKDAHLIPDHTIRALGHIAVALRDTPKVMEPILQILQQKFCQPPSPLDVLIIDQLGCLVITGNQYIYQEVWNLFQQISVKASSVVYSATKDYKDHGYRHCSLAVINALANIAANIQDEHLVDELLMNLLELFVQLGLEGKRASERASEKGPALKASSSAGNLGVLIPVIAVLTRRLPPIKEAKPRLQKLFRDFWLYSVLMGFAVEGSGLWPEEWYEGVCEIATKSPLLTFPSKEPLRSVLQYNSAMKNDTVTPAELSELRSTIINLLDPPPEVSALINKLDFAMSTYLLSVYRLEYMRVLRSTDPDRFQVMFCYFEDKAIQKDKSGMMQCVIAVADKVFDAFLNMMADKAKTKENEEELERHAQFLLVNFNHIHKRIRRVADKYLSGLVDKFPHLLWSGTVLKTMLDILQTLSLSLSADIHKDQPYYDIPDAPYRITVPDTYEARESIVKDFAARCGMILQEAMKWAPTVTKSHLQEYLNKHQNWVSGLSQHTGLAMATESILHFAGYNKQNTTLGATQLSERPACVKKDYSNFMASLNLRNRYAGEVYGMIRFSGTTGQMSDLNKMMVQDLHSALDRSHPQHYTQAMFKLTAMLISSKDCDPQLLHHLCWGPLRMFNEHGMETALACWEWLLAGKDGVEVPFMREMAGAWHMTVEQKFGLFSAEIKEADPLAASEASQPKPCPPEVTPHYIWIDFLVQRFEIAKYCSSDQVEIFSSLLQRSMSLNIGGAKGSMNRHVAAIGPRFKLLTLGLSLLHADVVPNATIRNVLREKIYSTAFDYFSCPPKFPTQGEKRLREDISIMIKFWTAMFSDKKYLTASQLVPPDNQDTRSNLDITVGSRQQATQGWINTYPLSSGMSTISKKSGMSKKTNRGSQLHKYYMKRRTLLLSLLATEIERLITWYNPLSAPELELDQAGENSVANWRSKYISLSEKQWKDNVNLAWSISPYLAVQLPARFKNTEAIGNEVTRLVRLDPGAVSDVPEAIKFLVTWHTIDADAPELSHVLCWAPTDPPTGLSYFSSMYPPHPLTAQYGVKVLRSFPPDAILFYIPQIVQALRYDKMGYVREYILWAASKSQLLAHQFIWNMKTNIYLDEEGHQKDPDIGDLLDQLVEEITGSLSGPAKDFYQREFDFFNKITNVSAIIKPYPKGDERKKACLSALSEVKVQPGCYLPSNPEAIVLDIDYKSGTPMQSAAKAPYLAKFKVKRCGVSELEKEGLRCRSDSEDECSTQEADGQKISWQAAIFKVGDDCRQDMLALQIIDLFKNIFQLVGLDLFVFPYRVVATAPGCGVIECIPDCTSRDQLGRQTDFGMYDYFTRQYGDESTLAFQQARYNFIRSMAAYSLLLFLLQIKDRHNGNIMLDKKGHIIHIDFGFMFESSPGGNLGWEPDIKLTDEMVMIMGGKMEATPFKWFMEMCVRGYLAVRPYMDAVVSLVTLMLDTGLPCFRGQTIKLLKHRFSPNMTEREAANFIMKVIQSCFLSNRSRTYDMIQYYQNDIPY
T2 sequence (O02810 whole entry): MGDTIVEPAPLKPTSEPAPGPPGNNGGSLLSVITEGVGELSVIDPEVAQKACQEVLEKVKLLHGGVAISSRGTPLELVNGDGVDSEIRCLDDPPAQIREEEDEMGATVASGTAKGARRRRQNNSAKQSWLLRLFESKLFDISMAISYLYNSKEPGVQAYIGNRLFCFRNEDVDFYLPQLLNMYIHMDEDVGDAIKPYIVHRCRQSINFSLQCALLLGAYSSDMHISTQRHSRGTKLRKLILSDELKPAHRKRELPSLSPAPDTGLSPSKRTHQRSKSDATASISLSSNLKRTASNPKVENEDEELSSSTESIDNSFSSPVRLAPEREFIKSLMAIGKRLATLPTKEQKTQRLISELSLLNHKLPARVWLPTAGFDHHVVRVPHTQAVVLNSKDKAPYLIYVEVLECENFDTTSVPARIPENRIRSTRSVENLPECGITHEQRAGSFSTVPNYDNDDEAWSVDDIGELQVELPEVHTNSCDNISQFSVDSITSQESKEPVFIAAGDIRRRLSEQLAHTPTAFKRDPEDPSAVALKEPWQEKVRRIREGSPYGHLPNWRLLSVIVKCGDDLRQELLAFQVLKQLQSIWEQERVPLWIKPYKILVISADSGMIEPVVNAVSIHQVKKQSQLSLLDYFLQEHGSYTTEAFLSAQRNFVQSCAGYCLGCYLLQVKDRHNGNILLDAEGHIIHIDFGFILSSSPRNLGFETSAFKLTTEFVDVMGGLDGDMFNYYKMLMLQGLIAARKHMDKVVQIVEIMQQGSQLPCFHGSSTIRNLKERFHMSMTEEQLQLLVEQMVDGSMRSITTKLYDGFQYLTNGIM

| Compound | EC50 [1] | EC50 [2] | EC50 ([3]; Enterovirus A, EV71) | EC50 [4] | half-life [5, 16] | half-life ([5]; with ritonavir (concentration not stated), + Ritonavir, read-out: HLM/MLM (t ½ min) + Ritonavir: HLM) | half-life [6, 17] | half-life [6, 18] | Papp [7] | CC50 [8] | CC50 [9] | CC50 [10] | HLM/MLM (t ½ min) + Ritonavir: HLM ([5]; + Ritonavir) | CC50 [11] | CC50 [12] | CC50 [13] | EC50 [3] | IC50 [14] | IC50 [15] |
| --- | --- | --- | --- | --- | --- | --- | --- | --- | --- | --- | --- | --- | --- | --- | --- | --- | --- | --- | --- |
| COc1ccc(-c2sc(NC(C)(C)C3CCOCC3)nc2C)cc1S(=O)(=O)Nc1c(C)cccc1F [Compound S-1] | 0.005 µM | 0.0005 µM | 0.0002 µM | 0.0024 µM and 0.002 µM | 0.1 h | 1.13 h | 0.133 h | 0.833 h | 4 ×10⁻⁶ cm/s | 15 µM | 100 µM | 18.2 µM |  |  |  |  |  |  |  |
| COc1ccc(-c2sc(NC(C)(C)C3CCOCC3)nc2C)cc1S(=O)(=O)Nc1cccnc1C [Compound S-3] | 0.0005 µM | 0.0005 µM | 0.0005 µM | 0.0013 µM and 0.001 µM | 0.967 h |  | 0.967 h | 2.65 h | 7.42 ×10⁻⁶ cm/s | 70.5 µM | 86.6 µM | 47.5 µM | 159/159 min | 70 µM | 86 µM | 47 µM |  |  |  |
| COc1ccc(-c2sc(NC(C)(C)C3CCOCC3)nc2C)cc1S(=O)(=O)Nc1ccc(F)cc1Cl [Compound S-4] | 0.0013 µM | 0.0013 µM |  |  |  |  |  |  |  | 17.3 µM | 36.5 µM |  |  | 17 µM | 36 µM |  |  |  |  |
| COc1ccc(-c2sc(NC3(C4CCOCC4)CC3)nc2C)cc1S(=O)(=O)Nc1ccc(Cl)cc1Cl [Compound S-14] | 0.0144 µM | 0.014 µM | 0.0104 µM | 33.3 µM and 33 µM |  |  |  |  |  | 36.4 µM | 37.2 µM | 39.4 µM |  | 36 µM | 37 µM | 39 µM | 0.01 µM |  |  |
| COc1ccc(-c2sc(NC(C)(C)c3ccccc3)nc2C)cc1S(=O)(=O)Nc1c(C)cccc1F [Compound S-32] | 0.0002 µM |  |  | 0.0006 µM and 0.0003 µM | 0.283 h |  | 0.367 h | 2.22 h | 0.04 ×10⁻⁶ cm/s |  |  | 100 µM | 159 min |  |  |  |  | > 10 µM | < 0.1 µM |
| COc1ccc(-c2sc(NC(C)(C)c3ccccc3)nc2C)cc1S(=O)(=O)Nc1ccc(O)cc1 [Compound S-38] | 0.0006 µM | 0.0002 µM |  |  |  |  |  |  |  |  |  |  |  |  |  |  |  |  |  |
| COc1ccc(-c2sc(NC(C)(C)c3cccnc3)nc2C)cc1S(=O)(=O)Nc1c(C)cccc1F [Compound S-39] | 0.0002 µM | 0.0002 µM | 0.0002 µM | 0.0008 µM | 1.38 h |  | 1.12 h | 1.38 h | 7.6 ×10⁻⁶ cm/s | 47.7 µM | 99 µM | 19.9 µM | 159 min | 47 µM | 99 µM | 19 µM |  |  |  |
| COc1ccc(-c2sc(NC(C)(C)c3ccncc3)nc2C)cc1S(=O)(=O)Nc1ccncc1C [Compound S-49] | 0.01 µM |  | 0.001 µM | 0.0507 µM |  |  |  |  |  | 66.3 µM | 29.5 µM | 71.4 µM |  |  |  |  |  |  |  |
| COc1ccc(-c2sc(NC(C)(C)C3CCOCC3)nc2C)cc1S(=O)(=O)Nc1ccncc1C [Compound S-50] | 0.0076 µM |  | 0.0012 µM | 0.0128 µM |  |  |  |  |  | 46.6 µM | 38.1 µM | 37.6 µM |  |  |  |  |  |  |  |
| COc1ccc(-c2sc(NC(C)(C)C3CCN(C(C)=O)CC3)nc2C)cc1S(=O)(=O)Nc1ccc(F)cc1Cl [Compound S-51] | 0.0015 µM |  | 0.0013 µM | 0.0115 µM |  |  |  |  |  | 52.7 µM | 62.1 µM | 37 µM |  |  |  |  |  |  |  |
| COc1ccc(-c2sc(NC(C)(C)C3CCNCC3)nc2C)cc1S(=O)(=O)Nc1ccc(F)cc1Cl [Compound S-52] | 75 µM |  | 75 µM | 100 µM |  |  |  |  |  | 2.32 µM | 3.07 µM | 2.23 µM |  |  |  |  |  |  |  |
| COc1ccc(-c2sc(NC(C)(C)C3CCNCC3)nc2C)cc1S(=O)(=O)Nc1cccnc1C [Compound S-53] | 12.4 µM |  | 3.56 µM | 12.3 µM |  |  |  |  |  | 100 µM | 47.9 µM | 100 µM |  |  |  |  |  |  |  |
| COc1ccc(-c2sc(NC34CC(C3)C4)nc2C)cc1S(=O)(=O)Nc1c(C)cccc1F [Compound S-55] | 0.001 µM |  | 0.0018 µM | 0.0068 µM |  |  |  |  |  | 19.4 µM | 100 µM | 22.1 µM |  |  |  |  |  |  |  |
| COc1ccc(-c2sc(NC(C)(C)c3ccccc3)nc2C)cc1S(=O)(=O)NC1CCN(S(C)(=O)=O)CC1 [Compound S-57] | 0.0009 µM | 0.0009 µM | 0.0009 µM | 0.001 µM |  |  |  |  |  | 95.2 µM | 96.1 µM | 100 µM |  | 95 µM |  |  |  |  |  |
| COc1ccc(-c2sc(NC(C)(C)C3CCCCC3)nc2C)cc1S(=O)(=O)Nc1c(C)cccc1F [Compound S-58] | 0.0225 µM | 0.022 µM | 0.0068 µM | 0.0135 µM and 0.013 µM |  |  |  |  |  | 100 µM | 100 µM | 100 µM |  |  |  |  | 0.006 µM |  |  |
| COCC(C)(C)Nc1nc(C)c(-c2ccc(OC)c(S(=O)(=O)Nc3c(C)cccc3F)c2)s1 [Compound S-63] | 0.0015 µM |  | 0.0084 µM | 0.0034 µM |  |  |  |  |  | 27.7 µM | 83.8 µM | 40.6 µM |  |  |  |  |  |  |  |
| COc1ccc(-c2oc(NC(C)(C)c3ccccc3)nc2C)cc1S(=O)(=O)Nc1c(C)cccc1F [Compound S-65] | 0.0018 µM |  | 0.0027 µM | 0.0024 µM |  |  |  |  |  | 46.3 µM | 31.3 µM | 1.7 µM |  |  |  |  |  |  |  |
| COc1ccc(-c2sc(N[C@@H](C)c3ccccc3)nc2C)cc1S(=O)(=O)Nc1c(C)cccc1F [Compound S-74] |  | 0.0009 µM | 0.0009 µM | 0.001 µM |  |  |  |  |  | 95 µM | 95 µM | 100 µM |  |  |  |  |  |  |  |
| COc1ccc(-c2sc(N[C@H](C)c3ccccc3)nc2C)cc1S(=O)(=O)Nc1c(C)cccc1F [Compound S-75] |  | 0.022 µM | 0.006 µM | 0.013 µM |  |  |  |  |  | 100 µM | 100 µM | 100 µM |  |  |  |  |  |  |  |
| COc1ccc(-c2sc(NCC3CCOCC3)nc2C)cc1S(=O)(=O)Nc1ccc(F)cc1Cl [Compound S-77] |  | 0.826 µM |  |  |  |  |  |  |  | 66 µM |  |  |  |  |  |  |  |  |  |
